Measurements published in ChEMBL document CHEMBL1159033, “Inhibition of angiotensin-I-converting enzyme by tetrahydroxyxanthones isolated from Tripterospermum lanceolatum” (J Nat Prod, 1992).

Tests used:
[1] = target: T1, Angiotensin-converting enzyme (Homo sapiens, UniProt P12821); assay: Inhibition of ACE at 100 uM
[2] = target: T1, Angiotensin-converting enzyme; assay: Inhibition of ACE
[3] = target: T1, Angiotensin-converting enzyme; assay: Inhibition of ACE at 400 uM
[4] = target: T1, Angiotensin-converting enzyme; assay: Inhibition of ACE by Lineweaver-Burke plot
[5] = target: T1, Angiotensin-converting enzyme; assay: Inhibition of ACE at 200 uM
Rattus norvegicus [6] = assay: Antihypertensive activity in spontaneously hypertensive rat assessed as inhibition of angiotensin 1-induced vasopressive response at 40 mg/kg, iv after 10 mins; assay type: functional
Rattus norvegicus [7] = assay: Antihypertensive activity in spontaneously hypertensive rat assessed as inhibition of angiotensin 1-induced vasopressive response at 80 mg/kg, iv after 10 mins; assay type: functional
Rattus norvegicus [8] = assay: Antihypertensive activity in spontaneously hypertensive rat assessed as inhibition of angiotensin 1-induced vasopressive response at 80 mg/kg, iv after 20 mins; assay type: functional
Rattus norvegicus [9] = assay: Antihypertensive activity in spontaneously hypertensive rat assessed as inhibition of angiotensin 1-induced vasopressive response at 80 mg/kg, iv after 30 mins; assay type: functional; conditions: 0.5 h
Rattus norvegicus [10] = assay: Antihypertensive activity in spontaneously hypertensive rat assessed as inhibition of angiotensin 1-induced vasopressive response at 20 mg/kg, iv after 10 mins; assay type: functional
Rattus norvegicus [11] = assay: Antihypertensive activity in spontaneously hypertensive rat assessed as inhibition of angiotensin 1-induced vasopressive response at 40 mg/kg, iv after 30 mins; assay type: functional; conditions: 0.5 h
Rattus norvegicus [12] = assay: Antihypertensive activity in spontaneously hypertensive rat assessed as inhibition of angiotensin 1-induced vasopressive response at 20 mg/kg, iv after 20 mins; assay type: functional
Rattus norvegicus [13] = assay: Antihypertensive activity in spontaneously hypertensive rat assessed as inhibition of angiotensin 1-induced vasopressive response at 20 mg/kg, iv after 30 mins; assay type: functional; conditions: 0.5 h
Rattus norvegicus [14] = assay: Antihypertensive activity in spontaneously hypertensive rat assessed as inhibition of angiotensin 1-induced vasopressive response at 40 mg/kg, iv after 20 mins; assay type: functional
Rattus norvegicus [15] = assay: Antihypertensive activity in spontaneously hypertensive rat assessed as inhibition of angiotensin 1-induced vasopressive response at 0.04 mg/kg, iv after 20 mins; assay type: functional
Rattus norvegicus [16] = assay: Antihypertensive activity in spontaneously hypertensive rat assessed as inhibition of angiotensin 1-induced vasopressive response at 0.4 mg/kg, iv after 30 mins; assay type: functional; conditions: 0.5 h
Rattus norvegicus [17] = assay: Antihypertensive activity in spontaneously hypertensive rat assessed as inhibition of angiotensin 1-induced vasopressive response at 0.4 mg/kg, iv after 10 mins; assay type: functional
Rattus norvegicus [18] = assay: Antihypertensive activity in spontaneously hypertensive rat assessed as inhibition of angiotensin 1-induced vasopressive response at 0.04 mg/kg, iv after 30 mins; assay type: functional; conditions: 0.5 h
Rattus norvegicus [19] = assay: Antihypertensive activity in spontaneously hypertensive rat assessed as inhibition of angiotensin 1-induced vasopressive response at 0.4 mg/kg, iv after 20 mins; assay type: functional
Rattus norvegicus [20] = assay: Antihypertensive activity in spontaneously hypertensive rat assessed as inhibition of angiotensin 1-induced vasopressive response at 0.04 mg/kg, iv after 10 mins; assay type: functional

T1 sequence (P12821 whole entry): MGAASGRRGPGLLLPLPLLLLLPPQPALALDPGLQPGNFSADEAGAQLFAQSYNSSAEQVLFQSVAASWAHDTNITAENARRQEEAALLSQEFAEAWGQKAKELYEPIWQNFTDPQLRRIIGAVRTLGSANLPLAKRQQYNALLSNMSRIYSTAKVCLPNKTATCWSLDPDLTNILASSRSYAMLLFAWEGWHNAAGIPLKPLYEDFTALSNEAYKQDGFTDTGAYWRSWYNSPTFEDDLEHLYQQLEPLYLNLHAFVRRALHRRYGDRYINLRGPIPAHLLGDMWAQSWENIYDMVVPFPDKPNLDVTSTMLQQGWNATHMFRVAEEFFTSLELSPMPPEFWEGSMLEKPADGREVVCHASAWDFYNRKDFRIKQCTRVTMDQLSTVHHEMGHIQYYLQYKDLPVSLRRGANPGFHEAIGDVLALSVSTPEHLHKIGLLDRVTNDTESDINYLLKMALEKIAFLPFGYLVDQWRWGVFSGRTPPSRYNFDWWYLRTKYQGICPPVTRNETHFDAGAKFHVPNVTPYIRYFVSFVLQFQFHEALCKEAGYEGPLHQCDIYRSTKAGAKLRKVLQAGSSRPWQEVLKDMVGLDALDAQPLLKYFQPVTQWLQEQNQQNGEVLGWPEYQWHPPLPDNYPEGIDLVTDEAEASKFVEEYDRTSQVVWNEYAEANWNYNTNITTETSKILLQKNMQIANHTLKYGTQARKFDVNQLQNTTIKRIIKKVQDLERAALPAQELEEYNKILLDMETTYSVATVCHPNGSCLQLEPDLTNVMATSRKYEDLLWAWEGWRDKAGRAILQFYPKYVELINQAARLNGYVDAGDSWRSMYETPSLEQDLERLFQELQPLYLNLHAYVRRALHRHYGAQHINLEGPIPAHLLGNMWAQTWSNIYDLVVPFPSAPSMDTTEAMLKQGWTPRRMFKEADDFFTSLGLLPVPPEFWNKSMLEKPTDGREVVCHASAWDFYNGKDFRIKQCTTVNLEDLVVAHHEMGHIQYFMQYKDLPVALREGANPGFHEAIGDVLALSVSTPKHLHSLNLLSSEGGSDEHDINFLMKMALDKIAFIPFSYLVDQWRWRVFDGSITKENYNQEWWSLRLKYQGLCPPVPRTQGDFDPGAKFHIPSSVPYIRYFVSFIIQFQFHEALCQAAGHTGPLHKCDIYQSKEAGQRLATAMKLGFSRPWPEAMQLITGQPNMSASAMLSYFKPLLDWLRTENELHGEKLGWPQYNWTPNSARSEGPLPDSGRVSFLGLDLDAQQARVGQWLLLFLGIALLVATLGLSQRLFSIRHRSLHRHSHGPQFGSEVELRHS

| Compound | inhibition [1] [%] | IC50 [2] [µM] | inhibition [3] [%] | Ki [4] [µM] | inhibition [5] [%] | further results |
| --- | --- | --- | --- | --- | --- | --- |
| O=c1c2cc(O)c(O)cc2oc2c(O)c(O)ccc12 | 83.1 |  | 95 | 14.2 | 90 | inhibition in vivo at 40 mg/kg (Rattus norvegicus [6]): 47.8%; inhibition in vivo at 80 mg/kg (Rattus norvegicus [7]): 52.7%; inhibition in vivo at 80 mg/kg (Rattus norvegicus [8]): 32.5%; inhibition in vivo at 80 mg/kg (Rattus norvegicus [9]): 13%; inhibition in vivo at 20 mg/kg (Rattus norvegicus [10]): 33.8%; inhibition in vivo at 40 mg/kg (Rattus norvegicus [11]): 10%; inhibition in vivo at 20 mg/kg (Rattus norvegicus [12]): 5.9%; inhibition in vivo at 20 mg/kg (Rattus norvegicus [13]): 0%; inhibition in vivo at 40 mg/kg (Rattus norvegicus [14]): 30.8% |
| O=c1c2cc(O)c(O)cc2oc2cc(O)cc(O)c12 | 15.5 | 531 | 40.3 | 250 | 23.5 |  |
| O=c1c2cc(O)c(O)cc2oc2cc(O)c(O)cc12 | 11.7 | > 769 | 26.8 |  | 17.2 |  |
| O=c1c2ccc(O)c(O)c2oc2cc(O)cc(O)c12 | 56.4 | 69.2 | 75.3 | 34.2 | 67.7 |  |
| C[C@H](CS)C(=O)N1CCC[C@H]1C(=O)O [CAPTOPRIL] |  |  |  |  |  | inhibition in vivo at 0.04 mg/kg (Rattus norvegicus [15]): 0%; inhibition in vivo at 0.4 mg/kg (Rattus norvegicus [16]): 45.5%; inhibition in vivo at 0.4 mg/kg (Rattus norvegicus [17]): 78.5%; inhibition in vivo at 0.04 mg/kg (Rattus norvegicus [18]): 0%; inhibition in vivo at 0.4 mg/kg (Rattus norvegicus [19]): 66.6%; inhibition in vivo at 0.04 mg/kg (Rattus norvegicus [20]): 10% |

More lines, main results first:

| inhibition [1] [%] | IC50 [2] [µM] | inhibition [3] [%] | Ki [4] [µM] | inhibition [5] [%] | Compound | further results |
| --- | --- | --- | --- | --- | --- | --- |
| < 1 |  |  |  |  | CC(=O)Oc1cc2oc3cc(OC(C)=O)c(OC(C)=O)cc3c(=O)c2cc1OC(C)=O |  |
| 7 |  |  |  |  | CC(=O)Oc1ccc2c(=O)c3ccc(OC(C)=O)c(OC(C)=O)c3oc2c1OC(C)=O |  |
| 34.3 | 239 | 55.5 | 126 | 46.2 | O=c1c2ccc(O)c(O)c2oc2c(O)c(O)ccc12 |  |
| < 1 |  |  |  |  | CC(=O)Oc1cc(OC(C)=O)c2c(=O)c3ccc(OC(C)=O)c(OC(C)=O)c3oc2c1 |  |
| 9.82 |  |  |  |  | CC(=O)Oc1cc2oc3c(OC(C)=O)c(OC(C)=O)ccc3c(=O)c2cc1OC(C)=O |  |
| < 1 |  |  |  |  | CC(=O)Oc1cc(OC(C)=O)c2c(=O)c3cc(OC(C)=O)c(OC(C)=O)cc3oc2c1 |  |
